For data set [1], the target named is T1, Soluble recombinant rat CD73 (Rattus norvegicus, UniProt P21588).
T1 sequence (P21588 29-551 limits assumed): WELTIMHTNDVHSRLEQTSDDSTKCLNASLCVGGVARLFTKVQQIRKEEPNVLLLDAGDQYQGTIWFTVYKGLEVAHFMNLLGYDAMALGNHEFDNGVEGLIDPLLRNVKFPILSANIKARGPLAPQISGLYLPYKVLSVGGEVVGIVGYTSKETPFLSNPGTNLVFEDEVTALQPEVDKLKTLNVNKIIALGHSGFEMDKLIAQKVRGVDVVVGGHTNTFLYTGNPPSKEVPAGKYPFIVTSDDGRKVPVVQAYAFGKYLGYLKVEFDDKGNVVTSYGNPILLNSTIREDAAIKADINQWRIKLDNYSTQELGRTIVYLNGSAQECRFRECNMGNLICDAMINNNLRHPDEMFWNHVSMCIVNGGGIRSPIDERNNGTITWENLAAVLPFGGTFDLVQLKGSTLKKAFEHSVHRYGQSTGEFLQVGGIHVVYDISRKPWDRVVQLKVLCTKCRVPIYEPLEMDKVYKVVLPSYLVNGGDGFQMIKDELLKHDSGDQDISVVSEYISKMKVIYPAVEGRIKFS
Description: CD73 enzyme inhibition assay, soluble rat CD73. The class given is biochemical. As to conditions: soluble recombinant rat CD73, Km 59 µM, substrate AMP (5 µM). On the procedure: Both compounds were evaluated for metabolic stability in mouse liver microsomes (MLM) and plasma protein binding (PPB) (Table 1).
(§1) The CD73 enzyme inhibition assay of recombinant soluble CD73, membrane-bound human CD73, soluble rat CD73 and mouse CD73 was performed as previously described.^[16,35^]

A short description of data set [2]: Stability in mouse liver microsomes (MLM). The data set is classed as in vitro ADME. As to conditions: after 90 min of coincubation, 5 µM compound, 37 °C. Here is the method:
An aqueous buffer of 75 mM PBS, 12.5 mM MgCl2, 0.6 mM NADPH, 1 mg/mL mouse liver microsomes and 5 µM of the respective compound was prepared. 200 µL of these samples were incubated for 90 min at 37 °C and […]. Afterward, acetonitrile/methanol (400 µL, 1:1) was added, and the samples were cooled to 0 °C for 10 min. 600 µL buffer was added and the solution was centrifuged for 15 min at 17,880 g. The supernatant was centrifuged again for 15 min at 17,880 g and 4 °C. The obtained solution was diluted with H2O/CH3CN/CH3OH (1:1:1) to a suitable concentration for quantification. Shortly before injection into HPLC, the solution was centrifuged again for 2 min at 17,880 g and 4 °C. The amount of remaining compound in the solution was quantified by ion count in SIM mode via HPLC-MS (CH3CN/water). The injection volume was 50 µL. Every experiment was performed in triplicate.

Data set [3] concerns the target T2, Human membrane‐bound CD73 (membrane preparation of MDA‐MB‐231 cell line) (Homo sapiens, UniProt P21589).
T2 construct: endogenous in cells; host or cells: MDA-MB-231 (human triple-negative breast cancer) membrane preparation
T2 sequence (P21589 27-574): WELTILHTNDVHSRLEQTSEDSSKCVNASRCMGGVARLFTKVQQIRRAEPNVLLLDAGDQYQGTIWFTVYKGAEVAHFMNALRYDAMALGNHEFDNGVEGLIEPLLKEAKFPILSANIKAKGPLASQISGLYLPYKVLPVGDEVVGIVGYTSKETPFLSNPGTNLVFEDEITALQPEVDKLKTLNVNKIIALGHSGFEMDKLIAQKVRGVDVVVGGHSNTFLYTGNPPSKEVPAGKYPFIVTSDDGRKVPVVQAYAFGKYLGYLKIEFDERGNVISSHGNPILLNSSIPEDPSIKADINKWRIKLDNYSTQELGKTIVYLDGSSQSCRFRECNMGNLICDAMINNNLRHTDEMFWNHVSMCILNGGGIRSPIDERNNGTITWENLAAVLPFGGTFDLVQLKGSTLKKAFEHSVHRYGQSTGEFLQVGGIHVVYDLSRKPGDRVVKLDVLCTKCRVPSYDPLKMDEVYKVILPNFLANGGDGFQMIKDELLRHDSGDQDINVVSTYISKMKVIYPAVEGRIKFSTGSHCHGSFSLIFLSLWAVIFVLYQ
Put plainly: CD73 enzyme inhibition assay, human membrane-bound CD73. The class given is biochemical. As to conditions: membrane preparation of human TNBC MDA‐MB‐231 cell line, Km 14.8 µM, substrate AMP (5 µM). Here is the method: as §1

pKi: −log10 of the molar value. “And” between values parts separate entries of the source, which are not always exact repeats. Identical values can stand only once.

The results in this text go back to publication PMC13077603, “Fluorine‐18‐Labeled Nucleotide Analogs Targeting Ecto‐5'‐Nucleotidase (CD73) for Positron Emission Tomography Imaging of Solid Tumors” (Angewandte Chemie (International Ed. in English), 2026).

Regarding `CCCN(Cc1ccc(-c2cn(CCF)nn2)cc1)c1nc(Cl)nc2c1ncn2[C@@H]1O[C@H](COP(=O)(O)CP(=O)(O)O)[C@@H](O)[C@H]1O` [compound 1], the negative-log Ki (pKi) (commonly the Ki on a negative log10 scale, so that one unit is a factor of ten) in data set [1] was 8.22; in data set [3], 8.56. Moreover, the “Metabolic stability in mouse liver microsomes (MLM): % decomposition” value in data set [2] was 17 ± 2% and 17%.
